Legend:
[1] = tested on: pilocarpine-induced SE mice; test: Pilocarpine-induced status epilepticus
hippocampal neurons = test: Apoptotic nuclei; format: cell-based, rat; conditions: 1-h 100 μM NMDA, co-incubation with 5 μM inhibitor
[2] = target: activated c-Abl immunoprecipitated from neurons (Rattus norvegicus, UniProt A0ABK0LKB8); test: In vitro phosphorylation kinase assay; format: biochemical; conditions: pre-incubation with 5 μM inhibitor (controls)
[3] = In vivo toxicity / tolerability observation; design: species or system mouse; conditions: diet 20, 67 or 200 ppm for 14 days
[4] = i.p. pre-treatment 12.5 mg/kg for 3 days, 60 min post pilocarpine
[5] = diet for 15 days (neurotinib 67 ppm, nilotinib 200 ppm), 60 min post pilocarpine

activated c-Abl immunoprecipitated from neurons, sequence (A0ABK0LKB8 1-1124): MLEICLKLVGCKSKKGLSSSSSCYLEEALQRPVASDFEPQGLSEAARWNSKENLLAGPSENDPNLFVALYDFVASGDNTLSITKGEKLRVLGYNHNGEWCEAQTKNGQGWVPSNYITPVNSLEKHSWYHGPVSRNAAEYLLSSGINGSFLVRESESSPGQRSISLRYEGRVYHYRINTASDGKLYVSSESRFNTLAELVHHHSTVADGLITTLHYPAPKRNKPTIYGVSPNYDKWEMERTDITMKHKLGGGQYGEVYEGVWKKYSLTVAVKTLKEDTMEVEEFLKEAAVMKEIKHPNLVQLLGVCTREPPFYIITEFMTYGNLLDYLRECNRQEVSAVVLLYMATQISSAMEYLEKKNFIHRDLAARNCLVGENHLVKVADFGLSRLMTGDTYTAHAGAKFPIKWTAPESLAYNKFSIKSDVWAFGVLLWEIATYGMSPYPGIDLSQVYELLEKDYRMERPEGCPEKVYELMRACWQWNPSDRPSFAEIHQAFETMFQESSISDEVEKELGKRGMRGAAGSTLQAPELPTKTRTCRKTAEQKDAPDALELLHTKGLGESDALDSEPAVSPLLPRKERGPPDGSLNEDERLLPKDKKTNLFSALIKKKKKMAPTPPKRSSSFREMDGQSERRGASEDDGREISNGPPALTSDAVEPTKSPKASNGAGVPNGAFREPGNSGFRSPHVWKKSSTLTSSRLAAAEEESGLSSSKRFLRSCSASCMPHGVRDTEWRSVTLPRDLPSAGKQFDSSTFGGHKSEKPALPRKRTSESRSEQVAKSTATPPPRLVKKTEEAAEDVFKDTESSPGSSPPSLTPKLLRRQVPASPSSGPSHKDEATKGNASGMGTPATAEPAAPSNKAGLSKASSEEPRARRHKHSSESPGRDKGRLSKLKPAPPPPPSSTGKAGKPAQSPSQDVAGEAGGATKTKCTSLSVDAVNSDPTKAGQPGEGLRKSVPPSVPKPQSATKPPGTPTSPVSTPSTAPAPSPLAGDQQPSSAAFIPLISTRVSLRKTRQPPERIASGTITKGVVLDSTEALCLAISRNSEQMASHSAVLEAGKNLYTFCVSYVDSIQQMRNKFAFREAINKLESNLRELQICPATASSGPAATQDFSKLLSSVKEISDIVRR

| Structure (SMILES) | Mice with SE [1, 4] [%] | Mice with single seizures but no SE [1, 4] [%] | Total mortality [1, 4] [%] | apoptotic nuclei (Hoechst) (hippocampal neurons) | CRKII-GST phosphorylation [2] | Mice with SE [1, 5] [%] | Total mortality [1, 5] | Latency SE ([1]; diet for 15 days (neurotinib 67 ppm, nilotinib 200 ppm), mean ± SEM) [min] | acute toxicity or changes in behavior [3] |
| --- | --- | --- | --- | --- | --- | --- | --- | --- | --- |
| Cc1ccc(NC(=O)c2ccc(CN3CCN(C)CC3)cc2)cc1Nc1nccc(-c2cccnc2)n1 [imatinib] | 68 | 29 | 36 | apoptosis reduction | inhibits CRKII-GST phosphorylation | – | – | – | – |
| Cc1cn(-c2cc(NC(=O)c3ccc(C)c(Nc4nccc(-c5cccnc5)n4)c3)cc(C(F)(F)F)c2)cn1 [nilotinib] | – | – | – | – | – | 70 | none | 32.6 ± 6.1 | No signs of acute toxicity or changes in behavior |
